The source of these data is patent publication US20250170141A1, “MRGPRX2 MODULATORS AND RELATED METHODS OF TREATMENT” (Escient Pharmaceuticals, Inc., priority 2023, published 2025).

This assay concerns the target T1, human MRGPRX2 (Homo sapiens, UniProt Q96LB1).
T1 construct: expressed in transfected cells; host or cells: CHO cells, stably transfected (G418 and Hygromycin B selection)
T1 sequence (Q96LB1 1-330): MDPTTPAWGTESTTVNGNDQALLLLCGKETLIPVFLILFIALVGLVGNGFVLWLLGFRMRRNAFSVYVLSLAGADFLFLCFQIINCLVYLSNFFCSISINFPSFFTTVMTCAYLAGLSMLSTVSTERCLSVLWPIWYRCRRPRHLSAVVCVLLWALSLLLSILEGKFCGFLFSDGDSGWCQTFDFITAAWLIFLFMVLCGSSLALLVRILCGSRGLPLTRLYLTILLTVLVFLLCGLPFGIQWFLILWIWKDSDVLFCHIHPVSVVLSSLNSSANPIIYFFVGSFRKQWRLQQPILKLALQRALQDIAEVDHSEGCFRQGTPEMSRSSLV
The experiment in a line: MRGPRX2 activity: IP-One Gq HTRF assay in CHO cells, antagonism versus 0.3 uM Cortistatin-14. It counts as cell-based. Particulars: versus 0.3 uM Cortistatin-14 agonist, CHO cells expressing human MRGPRX2, read-out: MRGPRX2 Antagonist Activity. An outline of the steps: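 CHO cells stably expressing human MRGPRX2 were treated with a 10-point compound curve (30 uM top, 1:3) plus 0.3 μM Cortistatin-14 in LiCl-containing Tris buffer, pH 8. Incubation was 1 h at 37 °C then 1 h at room temperature; IP-1 was detected by HTRF and IC50 came from the HTRF ratio.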

On to `CC(c1ccc(S(C)(=O)=O)cc1)c1c(F)ccc2c1NC(NCc1cccc(F)c1)=NS2(=O)=O` (stereo not shown) [Compound 22-20, 6-fluoro-3-((3-fluorobenzyl)amino)-5-(1-(4-(methylsulfonyl)phenyl)ethyl)-4H-benzo[e][1,2,4]thiadiazine 1,1-dioxide], for which the IC50 was 100 to 500 nM.
The result for `O=S1(=O)N=C(NCc2ncccc2F)Nc2c1ccc(F)c2/C=C/c1ccccc1F` [Compound 14-2, (E)-6-fluoro-3-(((3-fluoropyridin-2-yl)methyl)amino)-5-(2-fluorostyryl)-4H-benzo[e][1,2,4]thiadiazine 1,1-dioxide] reads 100 to 500 nM.
`O=S1(=O)N=C(NCc2ncccc2F)Nc2c(Oc3ccccc3Cl)c(Cl)cc(F)c21` [Compound 1-42, 6-chloro-5-(2-chlorophenoxy)-8-fluoro-3-(((3-fluoropyridin-2-yl)methyl)amino)-4H-benzo[e][1,2,4]thiadiazine 1,1-dioxide]: the IC50 lay in the range of 100 to 500 nM.
The result for `COc1ccccc1C(C)c1c(F)ccc2c1NC(NCc1cccc(F)c1)=NS2(=O)=O` (stereo not shown) [Compound 22-26, 6-fluoro-3-((3-fluorobenzyl)amino)-5-(1-(2-methoxyphenyl)ethyl)-4H-benzo[e][1,2,4]thiadiazine 1,1-dioxide] reads less than 100 nM; that for `C[C@H](c1ccccc1F)c1c(F)ccc2c1NC(NCc1ccc(F)cc1F)=NS2(=O)=O` [Compound 24-2, (R)-3-((2,4-difluorobenzyl)amino)-6-fluoro-5-(1-(2-fluorophenyl)ethyl)-4H-benzo[e][1,2,4]thiadiazine 1,1-dioxide], less than 100 nM.
The result for `O=S1(=O)N=C(NCc2ccccc2Cl)Nc2c(Cc3ccccc3Cl)cccc21` [Compound 12-1, 5-(2-chlorobenzyl)-3-((2-chlorobenzyl)amino)-4H-benzo[e][1,2,4]thiadiazine 1,1-dioxide] reads less than 100 nM.
The result for `Cc1cccc(C)c1Cc1cccc2c1NC(NCc1ccccc1F)=NS2(=O)=O` [Compound 6-17, 5-(2,6-dimethylbenzyl)-3-((2-fluorobenzyl)amino)-4H-benzo[e][1,2,4]thiadiazine 1,1-dioxide] reads less than 100 nM; that for `O=S1(=O)N=C(NCc2ncccc2F)Nc2c(NCc3ccccc3Cl)cccc21` [Compound 17-1, 5-((2-chlorobenzyl)amino)-3-(((3-fluoropyridin-2-yl)methyl)amino)-4H-benzo[e][1,2,4]thiadiazine 1,1-dioxide], greater than 2500 nM.
Take `COc1cc(C)ccc1CNC1=NS(=O)(=O)c2cccc(Cc3ccccc3Cl)c2N1` [Compound 12-15, 5-(2-chlorobenzyl)-3-((2-methoxy-4-methylbenzyl)amino)-4H-benzo[e][1,2,4]thiadiazine 1,1-dioxide]: the IC50 fell in the range of 100 to 500 nM.
As for `O=S1(=O)N=C(NCc2cccnc2C(F)(F)F)Nc2c(Cc3ccccc3Cl)cccc21` [Compound 12-31, 5-(2-chlorobenzyl)-3-(((2-(trifluoromethyl)pyridin-3-yl)methyl)amino)-4H-benzo[e][1,2,4]thiadiazine 1,1-dioxide], the figure is less than 100 nM; as for `CC(c1nccs1)c1c(F)ccc2c1NC(NCc1cccc(F)c1)=NS2(=O)=O` (stereo not shown) [Compound 22-11, 6-fluoro-3-((3-fluorobenzyl)amino)-5-(1-(thiazol-2-yl)ethyl)-4H-benzo[e][1,2,4]thiadiazine 1,1-dioxide], less than 100 nM; as for `COc1ccc(F)c(CNC2=NS(=O)(=O)c3ccc(F)c(Oc4ccccc4Cl)c3N2)c1` [Compound 1-20, 5-(2-chlorophenoxy)-6-fluoro-3-((2-fluoro-5-methoxybenzyl)amino)-4H-benzo[e][1,2,4]thiadiazine 1,1-dioxide], 1000 to 2500 nM.
The result for `CC(c1ccccc1F)c1c(F)ccc2c1NC(NCc1ccc(F)cc1F)=NS2(=O)=O` (stereo not shown) [Compound 7-6, 3-((2,4-difluorobenzyl)amino)-6-fluoro-5-(1-(2-fluorophenyl)ethyl)-4H-benzo[e][1,2,4]thiadiazine 1,1-dioxide] reads less than 100 nM; that for `N#Cc1ccc2c(c1Oc1ccccc1Cl)NC(NCc1ncccc1F)=NS2(=O)=O` [Compound 3-2, 5-(2-chlorophenoxy)-3-(((3-fluoropyridin-2-yl)methyl)amino)-4H-benzo[e][1,2,4]thiadiazine-6-carbonitrile 1,1-dioxide], less than 100 nM.
Turning to `O=C(c1ccccc1Cl)c1cccc2c1NC(NCc1ncccc1Cl)=NS2(=O)=O` [Compound 16-1, (2-chlorophenyl)(3-(((3-chloropyridin-2-yl)methyl)amino)-1,1-dioxido-4H-benzo[e][1,2,4]thiadiazin-5-yl)methanone], the IC50 was less than 100 nM.
In the case of `Cc1cccc(CNC2=NS(=O)(=O)c3cccc(Cc4ccccc4Cl)c3N2)c1` [Compound 12-20, 5-(2-chlorobenzyl)-3-((3-methylbenzyl)amino)-4H-benzo[e][1,2,4]thiadiazine 1,1-dioxide], the IC50 was less than 100 nM.
As to `Cc1cccnc1CNC1=NS(=O)(=O)c2cccc(Cc3ccccc3Cl)c2N1` [Compound 12-21, 5-(2-chlorobenzyl)-3-(((3-methylpyridin-2-yl)methyl)amino)-4H-benzo[e][1,2,4]thiadiazine 1,1-dioxide], the IC50 was less than 100 nM.
The result for `O=S1(=O)N=C(NCc2ncccc2F)Nc2c1ccc(F)c2Oc1c(F)cccc1Cl` [Compound 1-17, 5-(2-chloro-6-fluorophenoxy)-6-fluoro-3-(((3-fluoropyridin-2-yl)methyl)amino)-4H-benzo[e][1,2,4]thiadiazine 1,1-dioxide] reads 100 to 500 nM; that for `O=S1(=O)N=C(NCc2ccccc2F)Nc2c(Cc3cccc(F)c3)cccc21` [Compound 6-8, 5-(3-fluorobenzyl)-3-((2-fluorobenzyl)amino)-4H-benzo[e][1,2,4]thiadiazine 1,1-dioxide], less than 100 nM; that for `O=C(c1ccccc1Cl)c1c(F)ccc2c1NC(NCc1ncccc1F)=NS2(=O)=O` [Compound 16-6, (2-chlorophenyl)(6-fluoro-3-(((3-fluoropyridin-2-yl)methyl)amino)-1,1-dioxido-4H-benzo[e][1,2,4]thiadiazin-5-yl)methanone], 100 to 500 nM.
As for `N#Cc1ccc2c(c1Oc1ccccc1F)NC(NCc1ncccc1Cl)=NS2(=O)=O` [Compound 3-1, 3-(((3-chloropyridin-2-yl)methyl)amino)-5-(2-fluorophenoxy)-4H-benzo[e][1,2,4]thiadiazine-6-carbonitrile 1,1-dioxide], the figure is less than 100 nM.
As for `CC(c1c(F)ccc2c1NC(NCc1cccc(F)c1)=NS2(=O)=O)c1c[nH]c2ccccc12` (stereo not shown) [Compound 22-18, 5-(1-(1H-indol-3-yl)ethyl)-6-fluoro-3-((3-fluorobenzyl)amino)-4H-benzo[e][1,2,4]thiadiazine 1,1-dioxide], the figure is 100 to 500 nM; as for `O=S1(=O)N=C(NCc2ncccc2F)Nc2c(Cc3ccccc3Cl)cccc21` [Compound 12-2, 5-(2-chlorobenzyl)-3-(((3-fluoropyridin-2-yl)methyl)amino)-4H-benzo[e][1,2,4]thiadiazine 1,1-dioxide], less than 100 nM.
For the compound `O=S1(=O)N=C(NCc2ncccc2F)Nc2c1ccc(F)c2Oc1cccc(F)c1F` [Compound 1-40, 5-(2,3-difluorophenoxy)-6-fluoro-3-(((3-fluoropyridin-2-yl)methyl)amino)-4H-benzo[e][1,2,4]thiadiazine 1,1-dioxide], the IC50 was in the range of 100 to 500 nM.
The result for `O=S1(=O)N=C(NCc2ncccc2F)Nc2c1ccc(F)c2Oc1ccc(F)cc1` [Compound 2-7, 6-fluoro-5-(4-fluorophenoxy)-3-(((3-fluoropyridin-2-yl)methyl)amino)-4H-benzo[e][1,2,4]thiadiazine 1,1-dioxide] reads 100 to 500 nM; that for `COCCNC1=NS(=O)(=O)c2cccc(C(=O)c3ccccc3Cl)c2N1` [Compound 16-3, (2-chlorophenyl)(3-((2-methoxyethyl)amino)-1,1-dioxido-4H-benzo[e][1,2,4]thiadiazin-5-yl)methanone], 1000 to 2500 nM.
As to `CC(c1ccccc1F)c1c(F)c(F)cc2c1NC(NCc1ncccc1F)=NS2(=O)=O` (stereo not shown) [Compound 9-7, 6,7-difluoro-5-(1-(2-fluorophenyl)ethyl)-3-(((3-fluoropyridin-2-yl)methyl)amino)-4H-benzo[e][1,2,4]thiadiazine 1,1-dioxide], the IC50 is less than 100 nM.
As for `Cc1ccc(C(C)c2c(F)ccc3c2NC(NCc2cccc(F)c2)=NS3(=O)=O)o1` (stereo not shown) [Compound 22-10, 6-fluoro-3-((3-fluorobenzyl)amino)-5-(1-(5-methylfuran-2-yl)ethyl)-4H-benzo[e][1,2,4]thiadiazine 1,1-dioxide], the figure is less than 100 nM; as for `COc1ccc(C(C)c2c(F)ccc3c2NC(NCc2cccc(F)c2)=NS3(=O)=O)c(F)c1` (stereo not shown) [Compound 22-7, 6-fluoro-5-(1-(2-fluoro-4-methoxyphenyl)ethyl)-3-((3-fluorobenzyl)amino)-4H-benzo[e][1,2,4]thiadiazine 1,1-dioxide], less than 100 nM; as for `O=S1(=O)N=C(NCc2cccc(F)n2)Nc2c1ccc(F)c2Oc1ccccc1Cl` [Compound 2-4, 5-(2-chlorophenoxy)-6-fluoro-3-(((6-fluoropyridin-2-yl)methyl)amino)-4H-benzo[e][1,2,4]thiadiazine 1,1-dioxide], less than 100 nM.
As for `O=S1(=O)N=C(NCc2ncccc2F)Nc2c1ccc(F)c2Oc1ccccc1F` [Compound 1-15, 6-fluoro-5-(2-fluorophenoxy)-3-(((3-fluoropyridin-2-yl)methyl)amino)-4H-benzo[e][1,2,4]thiadiazine 1,1-dioxide], the figure is 100 to 500 nM.
